This is an account of results in ChEMBL document CHEMBL1137913, “Piperidine-containing beta-arylpropionic acids as potent antagonists of alphavbeta3/alphavbeta5 integrins” (Bioorg Med Chem Lett, 2004).

Molecules are shown by their SMILES.

Data set [1] in a line: Inhibition of human Biotinylated Fg binding to immobilized Alpha II biotinylated Fg beta-5.
The target of data set [2] is T1, Integrin alpha-IIb/beta-3 (Homo sapiens, UniProt P05106+P08514). Description: Inhibition of human Biotinylated Fg binding to immobilized Alpha II beta-3. The class given is protein-complex assay.
T1 sequence (P05106 27-788 limits assumed): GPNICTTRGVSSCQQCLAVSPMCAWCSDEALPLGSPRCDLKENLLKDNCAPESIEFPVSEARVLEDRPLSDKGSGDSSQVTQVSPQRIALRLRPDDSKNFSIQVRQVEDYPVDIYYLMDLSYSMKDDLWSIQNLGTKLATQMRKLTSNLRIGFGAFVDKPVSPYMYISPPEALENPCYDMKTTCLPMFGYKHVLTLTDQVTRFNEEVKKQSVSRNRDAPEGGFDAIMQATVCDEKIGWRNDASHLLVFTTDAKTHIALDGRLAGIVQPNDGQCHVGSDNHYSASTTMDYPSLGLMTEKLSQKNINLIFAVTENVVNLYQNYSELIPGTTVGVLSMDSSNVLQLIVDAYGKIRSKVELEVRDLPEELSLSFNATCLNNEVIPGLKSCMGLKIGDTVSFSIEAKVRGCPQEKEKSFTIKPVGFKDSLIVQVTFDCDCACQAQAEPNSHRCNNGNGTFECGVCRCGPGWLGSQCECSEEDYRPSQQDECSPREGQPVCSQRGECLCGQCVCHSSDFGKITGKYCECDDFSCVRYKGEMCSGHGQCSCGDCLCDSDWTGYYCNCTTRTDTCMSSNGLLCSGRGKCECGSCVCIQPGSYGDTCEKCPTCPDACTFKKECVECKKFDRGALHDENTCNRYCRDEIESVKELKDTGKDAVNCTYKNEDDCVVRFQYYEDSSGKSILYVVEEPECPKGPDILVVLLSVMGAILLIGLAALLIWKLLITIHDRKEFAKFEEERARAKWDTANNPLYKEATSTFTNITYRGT
T1 sequence (P08514 32-887 limits assumed): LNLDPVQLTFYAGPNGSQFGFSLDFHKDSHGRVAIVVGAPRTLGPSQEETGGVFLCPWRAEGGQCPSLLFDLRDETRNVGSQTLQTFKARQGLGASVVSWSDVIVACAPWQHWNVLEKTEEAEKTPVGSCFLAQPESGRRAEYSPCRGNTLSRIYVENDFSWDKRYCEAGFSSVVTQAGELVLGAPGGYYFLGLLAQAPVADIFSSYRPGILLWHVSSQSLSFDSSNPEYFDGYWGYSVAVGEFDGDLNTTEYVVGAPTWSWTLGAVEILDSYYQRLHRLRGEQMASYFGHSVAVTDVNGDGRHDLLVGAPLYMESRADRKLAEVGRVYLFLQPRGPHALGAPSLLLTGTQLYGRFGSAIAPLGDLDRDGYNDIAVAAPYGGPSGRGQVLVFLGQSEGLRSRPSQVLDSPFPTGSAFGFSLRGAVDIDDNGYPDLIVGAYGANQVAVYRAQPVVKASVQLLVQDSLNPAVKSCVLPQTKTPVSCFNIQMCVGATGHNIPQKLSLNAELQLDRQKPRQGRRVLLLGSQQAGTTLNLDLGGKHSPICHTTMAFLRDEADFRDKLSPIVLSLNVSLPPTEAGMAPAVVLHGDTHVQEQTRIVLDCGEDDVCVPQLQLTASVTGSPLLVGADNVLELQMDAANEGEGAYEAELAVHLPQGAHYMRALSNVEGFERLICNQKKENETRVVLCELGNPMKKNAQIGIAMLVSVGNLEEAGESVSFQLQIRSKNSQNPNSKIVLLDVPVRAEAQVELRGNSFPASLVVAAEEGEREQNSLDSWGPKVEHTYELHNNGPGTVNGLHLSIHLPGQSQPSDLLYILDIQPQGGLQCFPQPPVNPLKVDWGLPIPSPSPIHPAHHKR
T1 sequence (P08514 891-1039 limits assumed): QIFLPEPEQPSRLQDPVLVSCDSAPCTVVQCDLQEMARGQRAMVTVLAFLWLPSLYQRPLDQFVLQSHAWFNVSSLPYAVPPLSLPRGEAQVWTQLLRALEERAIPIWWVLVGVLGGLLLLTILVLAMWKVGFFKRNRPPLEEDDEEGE
Data set [3] concerns the target Integrin alpha-V/beta-3 (Homo sapiens, UniProt P05106+P06756). Put plainly: Inhibition of human vitronectin binding to immobilized Alpha v beta-3. In kind it is protein-complex assay.
The nature of data set [4]: Half life was determined after peroral administration at 10 mg/kg. The class given is ADME, organism-based. Set-up: dose 10 mg/kg, route oral. The note with it: rat, in vivo, po.
A short description of data set [5]: Oral bioavailability (dose in 5% dextrose in water at pH 2). In kind it is ADME, organism-based. The note with it: rat, in vivo.
Data set [6] is described as follows: AUC was determined after peroral administration at 10 mg/kg. In kind it is ADME, organism-based. Set-up: dose 10 mg/kg, route oral. The conditions noted are these: rat, plasma, po.
Data set [7] is described as follows: Clearance was determined after intravenous administration at 2 mg/kg. The class given is ADME, organism-based. Set-up: dose 2 mg/kg, route intravenous. The conditions noted are these: rat, in vivo.
For data set [8], the target named is T1, Integrin alpha-IIb/beta-3. Put plainly: Inhibition of human Biotinylated Fg binding to immobilized Alpha IIb beta-3 (N=1). The class given is protein-complex assay.

Chain of Integrin alpha-V/beta-3 (P05106 27-788 limits assumed): as the sequence (P05106 27-788 limits assumed) above
Chain of Integrin alpha-V/beta-3 (P06756 31-889 limits assumed): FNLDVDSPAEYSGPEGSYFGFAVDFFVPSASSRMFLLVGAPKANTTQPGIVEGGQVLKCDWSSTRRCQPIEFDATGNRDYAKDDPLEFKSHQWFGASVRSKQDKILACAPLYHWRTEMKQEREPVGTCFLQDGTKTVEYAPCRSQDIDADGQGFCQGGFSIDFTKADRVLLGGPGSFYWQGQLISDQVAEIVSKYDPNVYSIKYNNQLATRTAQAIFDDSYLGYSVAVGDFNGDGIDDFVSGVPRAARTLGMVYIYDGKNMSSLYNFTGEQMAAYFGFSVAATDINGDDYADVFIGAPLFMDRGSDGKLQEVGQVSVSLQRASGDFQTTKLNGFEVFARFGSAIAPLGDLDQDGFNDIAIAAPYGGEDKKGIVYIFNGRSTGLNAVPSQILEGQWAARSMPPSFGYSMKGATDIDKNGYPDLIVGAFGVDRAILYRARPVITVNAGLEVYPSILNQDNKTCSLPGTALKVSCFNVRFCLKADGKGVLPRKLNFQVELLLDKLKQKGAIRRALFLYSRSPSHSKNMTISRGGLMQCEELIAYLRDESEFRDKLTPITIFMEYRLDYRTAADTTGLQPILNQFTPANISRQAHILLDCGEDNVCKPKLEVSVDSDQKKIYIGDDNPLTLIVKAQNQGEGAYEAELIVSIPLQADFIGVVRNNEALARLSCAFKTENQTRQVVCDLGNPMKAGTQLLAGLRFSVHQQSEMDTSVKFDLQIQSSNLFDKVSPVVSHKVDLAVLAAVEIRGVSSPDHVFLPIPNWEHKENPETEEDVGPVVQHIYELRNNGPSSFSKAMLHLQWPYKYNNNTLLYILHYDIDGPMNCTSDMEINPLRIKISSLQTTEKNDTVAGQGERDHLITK
Chain of Integrin alpha-V/beta-3 (P06756 891-1048 limits assumed): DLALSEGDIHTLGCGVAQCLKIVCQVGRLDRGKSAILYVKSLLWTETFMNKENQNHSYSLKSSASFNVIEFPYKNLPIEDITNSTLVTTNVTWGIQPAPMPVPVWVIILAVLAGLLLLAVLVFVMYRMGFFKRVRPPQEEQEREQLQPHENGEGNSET

As usually defined, the IC50 is the concentration needed to halve the response being measured. Regarding `O=C(O)CC(CCC1CCN(C(=O)Cc2ccc3c(n2)NCCC3)CC1)c1ccc2c(c1)OCO2` (stereo unspecified), the IC50 in data set [1] is 405 nM; in data set [2] it was more than 10000 nM; in data set [3] it was 75 nM.

In general, half-life refers to the time in which the quantity being followed falls by half. A low value points to rapid decline. The term bioavailability denotes the share of a dose that reaches the circulation, judged against a reference dose that is usually intravenous. As a reminder, the AUC is the area under the concentration-time curve, a measure of exposure. A higher AUC goes with high exposure. `O=C(O)CC(NC(=O)C1CCN(C(=O)CCc2ccc3c(n2)NCCC3)CC1)c1ccc2c(c1)OCO2` (stereo unspecified): the half-life in data set [4] was 6.7 h. Also, in data set [5], the bioavailability is 2.4%. The molecule also had an AUC in data set [6] of 79 µM·h. Also, the IC50 was found to be 15700 nM in data set [2] and 21.7 nM in data set [3]. This molecule gave a CI in data set [7] of 0.09 mg/kg/µM/h.

With `O=C(O)CC(c1ccc2c(c1)OCO2)C1CCN(C(=O)CCc2ccc3c(n2)NCCC3)CC1` (stereo unspecified), the IC50 in data set [1] is 95.7 nM; in data set [2], 6190 nM; in data set [3] it was 28.1 nM.

For the molecule `O=C(O)CC(c1ccc2c(c1)OCO2)C1CCN(C(=O)CCCc2ccc3c(n2)NCCC3)CC1` (stereo unspecified), the IC50 in data set [1] came out at 33.5 nM.

On to `N/C(=N\Cc1ccncc1)Nc1cccc(C(=O)N2CCC(C(=O)NC(CC(=O)O)c3ccc4c(c3)OCO4)CC2)c1` (stereo unspecified), for which the figures for the IC50 in data set [2] and in data set [3] were 56.4 nM and 25.3 nM, respectively.

In data set [4], `O=C(O)CC(CCC1CCN(C(=O)c2cccc(NC3=NCC(O)CN3)c2)CC1)c1ccc2c(c1)OCO2` (stereo unspecified) had a half-life of 5.4 h. The same molecule had a bioavailability in data set [5] of 2.6%. Further, in data set [6], the AUC was 21.2 µM·h. Also, the IC50 in data set [2] was found to be 1580 nM; in data set [3], 1.7 nM. This molecule showed a CI in data set [7] of 0.04 mg/kg/µM/h.

As for `O=C(O)CC(NC(=O)C1CCN(C(=O)CCc2ccc3c(n2)NCCC3)CC1)c1cnc2ccccc2c1` (stereo unspecified), the IC50 in data set [2] was found to be 2850 nM; in data set [3] it was 2.6 nM.

On to `O=C(O)CC(NC(=O)C1CCN(C(=O)c2cccc(NC3=CCC(O)CN3)c2)CC1)c1cnc2ccccc2c1` (stereo unspecified), for which the IC50 stood at 177 nM in data set [2] and 5.5 nM in data set [3].

In data set [4], `Cc1ncc(C(CC(=O)O)CC2CCN(C(=O)CCc3ccc4c(n3)NCCC4)CC2)cn1` (stereo unspecified) gave a half-life of 2.6 h. The same molecule had a bioavailability in data set [5] of 4%. The molecule also came in with an AUC in data set [6] of less than 0.1 µM·h. The molecule also registered a CI in data set [7] of 10.4 mg/kg/µM/h.

For the molecule `O=C(O)CC(CC1CCN(C(=O)CCCc2ccc3c(n2)NCCC3)CC1)c1ccc2c(c1)OCO2` (stereo unspecified), the values for the IC50 in data set [1], in data set [2] and in data set [3] were 220 nM, 4260 nM and 20.6 nM, respectively.

In the case of `O=C(O)CC(CC1CCN(C(=O)CCc2ccc3c(n2)NCCC3)CC1)c1cccnc1` (stereo unspecified), the bioavailability in data set [5] worked out at 0%. The molecule also displayed an IC50 in data set [1] of 1.7 nM. Besides, the CI in data set [7] was determined as 1.1 mg/kg/µM/h.

Molecule `COc1ncc(C(CC(=O)O)CC2CCN(C(=O)CCc3ccc4c(n3)NCCC4)CC2)c(OC)n1` (stereo unspecified) yielded a bioavailability in data set [5] of 1%. This molecule also came in with an AUC in data set [6] of 0.1 µM·h. The IC50 in data set [1] was determined as 4.6 nM; in data set [3], 1.5 nM. Also, the CI in data set [7] is 1 mg/kg/µM/h.

`O=C(O)CC(CCC1CCN(C(=O)CCCNc2ccccn2)CC1)c1ccc2c(c1)OCO2` (stereo unspecified) gave a half-life in data set [4] of 6.6 h. Further, the bioavailability in data set [5] amounted to 96%. Moreover, in data set [6], the AUC is 142 µM·h. Further, the results for the IC50 in data set [2] and in data set [3] were 10900 nM and 233 nM, respectively. This molecule also showed a CI in data set [7] of 0.2 mg/kg/µM/h.

Molecule `O=C(O)CC(CCC1CCN(C(=O)CCc2ccc3c(n2)NCCC3)CC1)c1ccc2c(c1)OCO2` (stereo unspecified) had a half-life in data set [4] of 3 h. The same molecule gave a bioavailability in data set [5] of 88%. Further, the AUC in data set [6] turned out to be 304 µM·h. Further, in data set [2], the IC50 was 4360 nM. For the same molecule, the CI in data set [7] turned out to be 0.09 mg/kg/µM/h.

For `O=C(O)CC(NC(=O)C1CCN(C(=O)CCCNC2=NCCN2)CC1)c1cnc2ccccc2c1` (stereo unspecified), the IC50 in data set [2] was 79.3 nM; in data set [3], 2.8 nM.

Take `O=C(O)CC(CC1CCN(C(=O)CCc2ccc3c(n2)NCCC3)CC1)c1ccc2c(c1)OCO2` (stereo unspecified): the half-life in data set [4] was 2.1 h. This molecule displayed a bioavailability in data set [5] of 31%. This molecule registered an area under the curve (AUC) in data set [6] of 97 µM·h. For the same molecule, the IC50 in data set [1] came out at 2.3 nM. In data set [7], this molecule had a CI of 0.1 mg/kg/µM/h.

With `O=C(O)CC(CC1CCN(C(=O)CCc2ccc3c(n2)NCCC3)CC1)c1ccc2ccccc2c1` (stereo unspecified), the half-life in data set [4] was 5.65 h. The bioavailability in data set [5] worked out at 47%. In data set [6], this molecule returned an AUC of 286 µM·h. For the same molecule, the IC50 was 24.5 nM in data set [1] and more than 10000 nM in data set [2]. The CI in data set [7] turned out to be 0.02 mg/kg/µM/h.

In data set [4], `O=C(O)CC(CC1CCN(C(=O)CCc2ccc3c(n2)NCCC3)CC1)c1cccc(F)c1` (stereo unspecified) had a half-life of 1.7 h. Further, in data set [5], the bioavailability is 14%. Besides, the AUC in data set [6] came to 2.7 µM·h. Moreover, the IC50 in data set [1] was 2.8 nM; in data set [2], more than 10000 nM. Further, the CI in data set [7] was determined as 0.5 mg/kg/µM/h.

Turning to `O=C(O)CC(NC(=O)C1CCN(C(=O)c2cccc(NC3=CCCCN3)c2)CC1)c1ccc2c(c1)OCO2` (stereo unspecified), the IC50 in data set [2] was found to be 209 nM; in data set [3], 10.4 nM.

Consider `O=C(O)CC(c1ccc2c(c1)OCO2)C1CCN(C(=O)Cc2ccc3c(n2)NCCC3)CC1` (stereo unspecified), for which the IC50 in data set [1] was 775 nM; in data set [8], more than 10000 nM.

For `O=C(O)C[C@H](NC(=O)[C@@H]1CCCN(C(=O)CCC2CCNCC2)C1)c1cccnc1` [ELAROFIBAN], the figures for the IC50 in data set [2] and in data set [3] were 0.15 nM and more than 50000 nM, respectively.
